Test results from ChEMBL document CHEMBL1201862, “PubChem BioAssay data set” (2004).
Blank lines part the entries; values can stand above or below the molecule they belong to. The source made the active and inactive calls.

How the values were obtained:
[1] = reduction of Shn3 3'UTR-driven luciferase in osteoblasts – cell-based, Clone20 osteoblasts, firefly luciferase, cherry-picked, dose response (AID 624132); format: functional;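 further: firefly luciferase luminescence from reporter carrying the Shn3 3'UTR in osteoblasts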
[2] = loss of viability in HepG2 cells – cell-based, CellTiter-Glo, cherry-picked, cytotoxicity control for Shn3 inhibitor project, dose response (AID 624134); format: functional
[3] = non-specific 3'UTR reporter inhibition in Clone20-Shn3RL – cell-based, Renilla luciferase, cherry-picked, counter-screen for Shn3 inhibitor project, dose response (AID 624133); format: functional
[4] = molecular target: T1, Ubiquitin-conjugating enzyme E2 N (Homo sapiens, UniProt P61088); format: functional;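 further: Dose-response confirmation in a TR-FRET assay detecting UBC13-driven polyubiquitin chain formation, inhibition measured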
T1 sequence (P61088 whole entry): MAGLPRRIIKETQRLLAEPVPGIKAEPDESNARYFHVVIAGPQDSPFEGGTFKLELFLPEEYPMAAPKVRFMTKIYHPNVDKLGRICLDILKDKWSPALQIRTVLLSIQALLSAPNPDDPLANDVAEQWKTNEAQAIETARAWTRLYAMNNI

[5] = viability of HCT116 lacking mutant beta-catenin – cell-based, human colon tumor, dose response (AID 1045); format: functional;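 further: HCT116 colon tumor cells with beta catenin knocked out; cells exposed to compound for 60 hours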
[6] = viability of PTEN-deleted HCT116 cells – cell-based, HCT116 PTEN knockout, dose response (AID 1047); format: functional;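 further: HCT116 colon tumor cells with PTEN knocked out; cells exposed to compound for 60 hours before readout; potency for loss of cell viability measured by luminescence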
[7] = molecular target: Cytochrome P450 2C9 (Homo sapiens, UniProt P11712)
Chain of Cytochrome P450 2C9 (P11712 whole entry): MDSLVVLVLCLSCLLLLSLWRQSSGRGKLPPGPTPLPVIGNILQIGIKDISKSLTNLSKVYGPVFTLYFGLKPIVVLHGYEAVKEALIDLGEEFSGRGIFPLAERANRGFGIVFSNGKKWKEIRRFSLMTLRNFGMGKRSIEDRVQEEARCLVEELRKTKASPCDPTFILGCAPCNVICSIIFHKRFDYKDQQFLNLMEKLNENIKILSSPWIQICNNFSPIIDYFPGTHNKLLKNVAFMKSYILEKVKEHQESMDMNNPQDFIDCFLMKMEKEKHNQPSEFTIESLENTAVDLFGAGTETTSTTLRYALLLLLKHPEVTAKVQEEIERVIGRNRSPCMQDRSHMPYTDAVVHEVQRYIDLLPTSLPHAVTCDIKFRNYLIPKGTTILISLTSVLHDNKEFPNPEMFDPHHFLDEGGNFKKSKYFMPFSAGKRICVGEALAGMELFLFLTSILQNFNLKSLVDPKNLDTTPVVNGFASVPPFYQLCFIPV

[8] = molecular target: T2, Cytochrome P450 1A2 (Homo sapiens, UniProt P05177);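 further: PubChem cytochrome P450 panel assay, CYP1A2 panel member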
T2 sequence (P05177 whole entry): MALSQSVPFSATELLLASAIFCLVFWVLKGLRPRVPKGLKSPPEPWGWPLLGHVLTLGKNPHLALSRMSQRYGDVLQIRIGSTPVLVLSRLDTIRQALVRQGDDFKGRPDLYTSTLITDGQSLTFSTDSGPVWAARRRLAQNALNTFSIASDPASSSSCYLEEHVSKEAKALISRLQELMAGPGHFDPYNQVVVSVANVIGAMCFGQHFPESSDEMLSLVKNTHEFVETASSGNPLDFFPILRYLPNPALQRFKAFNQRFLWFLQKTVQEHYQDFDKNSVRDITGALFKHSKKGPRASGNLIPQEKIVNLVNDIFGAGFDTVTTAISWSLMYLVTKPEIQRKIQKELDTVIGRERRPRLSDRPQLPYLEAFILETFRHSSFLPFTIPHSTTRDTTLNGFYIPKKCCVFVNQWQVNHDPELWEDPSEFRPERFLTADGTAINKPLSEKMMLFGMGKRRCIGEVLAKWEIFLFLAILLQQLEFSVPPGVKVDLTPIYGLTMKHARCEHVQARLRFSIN

[9] = molecular target: Cytochrome P450 2C19 (Homo sapiens, UniProt P33261); assay: Cytochrome panel assay with activity outcomes. Panel member name: p450-cyp2c19 Compounds with AC50 equal or less than 10 uM are considered active; format: functional; conditions: read-out: AC50
Chain of Cytochrome P450 2C19 (P33261 whole entry): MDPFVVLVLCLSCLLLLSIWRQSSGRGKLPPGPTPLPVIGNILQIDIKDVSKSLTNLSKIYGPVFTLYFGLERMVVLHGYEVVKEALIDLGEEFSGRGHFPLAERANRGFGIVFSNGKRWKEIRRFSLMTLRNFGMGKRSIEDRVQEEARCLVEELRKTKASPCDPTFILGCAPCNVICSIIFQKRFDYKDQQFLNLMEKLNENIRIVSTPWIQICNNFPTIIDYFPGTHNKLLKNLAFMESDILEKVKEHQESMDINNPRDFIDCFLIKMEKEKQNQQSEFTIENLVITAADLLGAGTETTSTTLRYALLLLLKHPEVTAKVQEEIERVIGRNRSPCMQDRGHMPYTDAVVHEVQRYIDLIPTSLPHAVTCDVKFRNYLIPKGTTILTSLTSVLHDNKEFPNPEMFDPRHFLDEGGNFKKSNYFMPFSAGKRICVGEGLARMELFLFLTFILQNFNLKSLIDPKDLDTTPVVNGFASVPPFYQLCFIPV

[10] = molecular target: Cytochrome P450 3A4 (Homo sapiens, UniProt P08684);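 further: CYP3A4 tested as one member of a cytochrome P450 panel screen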
Chain of Cytochrome P450 3A4 (P08684 whole entry): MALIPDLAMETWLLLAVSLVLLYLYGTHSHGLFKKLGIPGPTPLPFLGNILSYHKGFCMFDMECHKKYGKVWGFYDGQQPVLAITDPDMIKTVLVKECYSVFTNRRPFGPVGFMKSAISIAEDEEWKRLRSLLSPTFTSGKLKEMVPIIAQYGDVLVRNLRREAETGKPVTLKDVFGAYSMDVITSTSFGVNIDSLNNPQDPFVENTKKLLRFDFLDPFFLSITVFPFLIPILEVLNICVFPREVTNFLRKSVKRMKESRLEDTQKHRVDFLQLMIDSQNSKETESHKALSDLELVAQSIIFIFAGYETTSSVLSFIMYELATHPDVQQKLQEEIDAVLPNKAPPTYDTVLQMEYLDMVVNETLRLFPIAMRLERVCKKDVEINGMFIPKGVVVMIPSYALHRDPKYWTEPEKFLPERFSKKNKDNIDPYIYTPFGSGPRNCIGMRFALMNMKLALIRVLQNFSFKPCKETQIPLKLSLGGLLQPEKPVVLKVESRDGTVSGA

[11] = molecular target: T3, Protein skinhead-1 (Caenorhabditis elegans, UniProt P34707); format: functional
T3 sequence (P34707 whole entry): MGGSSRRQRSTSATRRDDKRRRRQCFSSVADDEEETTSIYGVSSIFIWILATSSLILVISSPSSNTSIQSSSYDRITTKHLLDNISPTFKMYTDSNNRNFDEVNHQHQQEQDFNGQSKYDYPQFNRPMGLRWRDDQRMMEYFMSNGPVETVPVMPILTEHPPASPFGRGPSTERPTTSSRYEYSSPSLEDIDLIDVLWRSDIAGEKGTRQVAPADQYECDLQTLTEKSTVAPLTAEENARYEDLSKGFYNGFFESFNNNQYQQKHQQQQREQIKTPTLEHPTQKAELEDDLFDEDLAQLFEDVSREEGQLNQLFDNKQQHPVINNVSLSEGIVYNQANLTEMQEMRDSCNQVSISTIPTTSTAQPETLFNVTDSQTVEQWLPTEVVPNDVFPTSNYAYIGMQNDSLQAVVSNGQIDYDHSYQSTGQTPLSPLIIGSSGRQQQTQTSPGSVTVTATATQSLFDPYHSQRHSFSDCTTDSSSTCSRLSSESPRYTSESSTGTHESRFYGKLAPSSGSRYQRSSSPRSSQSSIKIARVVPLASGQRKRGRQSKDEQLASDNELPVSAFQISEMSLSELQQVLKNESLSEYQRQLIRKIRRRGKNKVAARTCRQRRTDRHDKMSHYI

[12] = P. falciparum Dd2 growth inhibitors, dose response, SYBR Green, cherry-picked samples (AID 1159567); format: functional, cell-based
[13] = intracellular Trypanosoma cruzi inhibitors in host cells – cell-based, plate reader, cherry-pick samples, set 3, dose response (AID 651818); format: functional;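 further: compounds incubated with infected cells for about four days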
[14] = molecular target: Paired box protein Pax-8 (Homo sapiens, UniProt Q06710); assay: PAX8 transcriptional activity inhibition in RMG-I – RMG-I cells, luciferase, cherry-pick, dose response (AID 687027); format: functional, cell-based;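 further: luciferase reporter driven by Pax8 target thyroperoxidase promoter measured by SteadyGlo luminescence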
Chain of Paired box protein Pax-8 (Q06710 whole entry): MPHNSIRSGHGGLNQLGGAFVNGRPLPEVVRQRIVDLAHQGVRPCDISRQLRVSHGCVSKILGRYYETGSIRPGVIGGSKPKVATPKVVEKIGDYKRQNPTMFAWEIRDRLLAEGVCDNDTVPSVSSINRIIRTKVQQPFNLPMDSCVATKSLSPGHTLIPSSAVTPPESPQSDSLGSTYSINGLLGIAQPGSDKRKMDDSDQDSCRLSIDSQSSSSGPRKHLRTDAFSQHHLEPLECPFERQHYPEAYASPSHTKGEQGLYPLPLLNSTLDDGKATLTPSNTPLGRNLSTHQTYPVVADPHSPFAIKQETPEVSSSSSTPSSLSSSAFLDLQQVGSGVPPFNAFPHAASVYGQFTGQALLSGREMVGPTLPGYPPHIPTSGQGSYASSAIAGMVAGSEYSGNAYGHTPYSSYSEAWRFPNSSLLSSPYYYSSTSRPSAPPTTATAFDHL

SMILES: NC1=NC[C@H](c2ccccc2)N1CCCCC1CCCCC1
AC50 [1]: 4.23 µM (active)
AC50 [2]: 43.1 µM (active)
AC50 [3]: 3.11 µM (active)
IC50 [4]: > 20 µM (inactive)

IC50 [4]: > 20 µM (inactive)
SMILES: O=C(C1=C[C@@H](c2coc3ccccc3c2=O)C[C@@H](OCc2ccc(CO)cc2)O1)N1CCN(Cc2ccc3c(c2)OCO3)CC1

SMILES: O=C(Oc1ccccc1/C=C\C(=O)c1cc2ccccc2o1)c1cccc(F)c1
EC50 [5]: 8.35 µM (active)
EC50 [6]: 8.35 µM (active)

IC50 [4]: > 20 µM (inactive)
SMILES: COC(=O)[C@@]12CCCCN1[C@H](c1ccc(-c3cc(C(C)=O)cs3)c(OC)c1)[C@H]1C(=O)N(C)C(=O)[C@H]12

SMILES: CN(Cc1cc(Cl)cc(Cl)c1O)Cc1c(O)ccc2ccccc12
AC50 [7]: 3.16 µM (inconclusive)
AC50 [8]: 0.631 µM (inconclusive)

AC50 [9]: 28.2 µM (inconclusive)
AC50 [10]: 3.55 µM (inconclusive)
AC50 [7]: 5.01 µM (inconclusive)
AC50 [8]: 28.2 µM (inconclusive)
SMILES: O=C(NC1CCCCC1)C12CC3CC(C1)CC(n1cncn1)(C3)C2

SMILES: O=C(/C=C/c1ccc(-c2ccccc2[N+](=O)[O-])o1)c1ccc(F)cc1
EC50 [5]: 35.7 µM (active)
EC50 [6]: 28.8 µM (active)

AC50 [9]: 20 µM (inconclusive)
AC50 [10]: 17.8 µM (inconclusive)
AC50 [8]: 15.8 µM (inconclusive)
SMILES: CC(C)CN(Cc1c(O)ccc2c3c(c(=O)oc12)CCC3)CC(C)C

AC50 [10]: 28.2 µM (inconclusive)
AC50 [7]: 2 µM (inconclusive)
AC50 [8]: 12.6 µM (inconclusive)
IC50 [11]: > 100 µM (inactive)
SMILES: Cn1c(-c2ccc(CN3CCCCC3)o2)nc2ccccc21

IC50 [4]: > 20 µM (inactive)
SMILES: Oc1ccc(C[C@@H]2CNCCN2CCCCC2CCCCC2)cc1

IC50 [4]: > 20 µM (inactive)
SMILES: CC(C)C[C@@H]1CN=C(N)N1C[C@@H]1CCCN1C[C@@H](C(C)C)N1C[C@@H](Cc2ccccc2)N(CCCC2CCCC2)C1=N

SMILES: C[C@@H]1CN([C@@H](C)CO)C(=O)c2c(c3ccccc3n2C)-c2ccccc2CO[C@H]1CN(C)S(=O)(=O)c1ccc(C(F)(F)F)cc1
AC50 [12]: 3.02 µM (active)

SMILES: O=C(CCCCCCC(=O)Nc1ccccc1O)N/N=C/c1ccc(OCc2ccccc2)cc1O
AC50 [13]: 1.16 µM (active)

SMILES: C[C@H](CO)N1C[C@H](C)[C@H](CN(C)Cc2ccc(C(=O)Nc3ccccc3N)cc2)Oc2ccc(NS(=O)(=O)c3cccs3)cc2CC1=O
AC50 [13]: 4.59 µM (active)

SMILES: C[C@H](CO)N1C[C@H](C)[C@@H](CN(C)Cc2ccc(C(=O)Nc3ccccc3N)cc2)Oc2c(NC(=O)Nc3ccc(F)cc3)cccc2C1=O
AC50 [13]: 4.17 µM (active)

SMILES: C[C@H](CO)N1C[C@H](C)[C@H](CN(C)Cc2ccc(C(=O)Nc3ccccc3N)cc2)Oc2ccc(NC(=O)Nc3ccc(F)cc3)cc2CC1=O
AC50 [13]: 2.26 µM (active)

SMILES: C[C@@H]1CN([C@H](C)CO)C(=O)c2cccc(NC(=O)Nc3ccc(C(F)(F)F)cc3)c2O[C@H]1CN(C)C(=O)Nc1ccc(C(F)(F)F)cc1
AC50 [13]: 6.75 µM (active)

SMILES: C[C@H](CO)N1C[C@H](C)[C@H](CN(C)Cc2ccc(-c3ccccc3)cc2)Oc2ccc(NC(=O)Nc3ccc(C(F)(F)F)cc3)cc2C1=O
AC50 [13]: 5.37 µM (active)

SMILES: C[C@@H]1CCCCO[C@@H](CN(C)Cc2ccccc2)[C@@H](C)CN([C@H](C)CO)C(=O)c2cc(NC(=O)Nc3ccc(C(F)(F)F)cc3)ccc2O1
AC50 [13]: 1.64 µM (active)
AC50 [14]: 10.1 µM (active)

SMILES: C[C@@H]1CN([C@H](C)CO)C(=O)Cc2cc(NS(=O)(=O)c3ccc(Cl)cc3)ccc2O[C@H]1CN(C)Cc1ccc(C(=O)Nc2ccccc2N)cc1
AC50 [13]: 4.53 µM (active)

SMILES: C[C@H](CO)N1C[C@H](C)[C@@H](CN(C)Cc2ccc(-c3ccccc3)cc2)Oc2c(NC(=O)NC3CCCCC3)cccc2C1=O
AC50 [13]: 4.23 µM (active)

SMILES: C[C@@H]1CCCCO[C@H](CN(C)Cc2ccc(Cl)c(Cl)c2)[C@@H](C)CN([C@H](C)CO)C(=O)c2cc(NS(=O)(=O)c3ccc(Cl)cc3)ccc2O1
AC50 [13]: 4.22 µM (active)

SMILES: COc1ccc(CN(C)C[C@@H]2Oc3ccc(NS(=O)(=O)c4ccc(Cl)cc4)cc3CC(=O)N([C@H](C)CO)C[C@H]2C)cc1
AC50 [13]: 2.61 µM (active)

SMILES: Cc1ccccc1S(=O)(=O)N1[C@H](CO)[C@@H](c2ccc(C#CC3CCCCC3)cc2)[C@@H]1C#N
AC50 [12]: 4.12 µM (active)

SMILES: OC[C@@H]1Nc2ccc(C#Cc3cccc(F)c3)cc2[C@@H]2NCC[C@H]12
AC50 [12]: 2.83 µM (active)

SMILES: N#C[C@H]1[C@@H](c2ccc(C#CC3CC3)cc2)[C@H](CO)N1S(=O)(=O)c1ccccc1
AC50 [12]: 4.18 µM (active)

SMILES: CCCNC(=O)N1CC2(CCN(C(=O)CN(C)C)CC2)c2c(n(C)c3cc(OC)ccc23)[C@H]1CO
AC50 [12]: 4.6 µM (active)

SMILES: COc1ccc(CN2C[C@@H](C)[C@H](OC)CN(C)C(=O)c3cc(NC(=O)c4nc5ccccc5s4)ccc3OC[C@H]2C)cc1
AC50 [12]: 4.08 µM (active)

SMILES: Cc1ccc(/C=C/C(=O)c2ccccc2)cc1
EC50 [5]: 20.1 µM (active)
EC50 [6]: 22.6 µM (active)
